The text below walks through data of patent US20210106700A1, “Fractionated Dosing of a Phospholipid Ether Analog for the Treatment of Cancer” (Cellectar Biosciences, Inc., priority 2018, published 2021).

The assay concerns OPM-2 cell line (human multiple myeloma). Kind of assay: OPM-2 multiple myeloma subcutaneous xenograft in CB17 SCID mice (tumor volume, doubling time, survival, body weight). Type of assay: in vivo, mouse. The settings on record: fractionated dosing. On the procedure: The OPM-2 cell line (human multiple myeloma) was purchased from American Type Culture Collection (ATCC, Rockville, Md.) and maintained in McCoy's 5a media supplemented with 10% fetal bovine serum. Female CB17 SCID mice approximately 5-7 weeks of age were injected subcutaneously with 1×10^7 viable cells (in ˜100 μL Dulbecco's PBS) into the right flank. The study was initiated when tumor size had reached a pre-determined size (approximately 150-200 mm3). The mice were given potassium iodide at a concentration of 0.1% in their drinking water to block possible free iodide in the drug formulation three days prior to injection and continuing through two weeks post-injection. Mice were randomly assigned to dose groups. Tumor volume was measured with a caliper during the course of the study. Tumor doubling time calculation4 TDT=D×log(2)/log(1+r/100), where D equals days between measurements and r=rate of growth; r/100=(V2−V1/V1)×100%. Statistical analysis: 1-way Anova, Dunnett's test.

Regarding “^131I-labeled 18-(p-iodo-phenyl)octadecyl phosphocholine [CLR 131]”, the “Tumor volume vs control” value (after day 26) is “statistically significant reduction”. Besides, where the note is “at day 52, p<0.05”, the “Tumor volume vs all other treatments” value is on record as “statistically significant reduction”.
